Reference: US20230391781A1, “MALT1 MODULATORS AND USES THEREOF” (Rheos Medicines, Inc., priority 2020, published 2023)
Converted amounts (≈) assume the structure as drawn.

What was measured:
[1] = test system: IL-2 in Jurkat (ATCC, clone E6.1) cells stimulated with anti-CD3/28/2; assay: Jurkat IL-2 Assay; assay type: cell-based; details: Homo sapiens; IL-2 inhibition, Jurkat cells, 30 min compound then anti-CD3/28/2 stimulation for 24 hours; mean value if tested more than once; read-out: IC50
Method in brief: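 Jurkat E6.1 T cells in RPMI/10% FBS (below passage 25) were preincubated with a compound dose-response for 30 min, then stimulated with soluble anti-CD3/28/2 for 24 h. IL-2 in the supernatant was measured by MSD immunoassay and viability by CellTiter-Glo luminescence. IC50 came from a 4-parameter fit, reported as ranges, with the mean used where tested repeatedly.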

full length MALT1 = full length MALT1 (Homo sapiens (Human), UniProt Q9UDY8); assay: MALT1 Biochemical Assay; details: 15 nM enzyme, 30 μM peptide substrate Ac-Leu-Arg-Ser-Arg-Rh110-dPro, 30 min pre-incubation, 60 min reaction; mean value if tested more than once
full length MALT1, sequence (Q9UDY8 whole entry): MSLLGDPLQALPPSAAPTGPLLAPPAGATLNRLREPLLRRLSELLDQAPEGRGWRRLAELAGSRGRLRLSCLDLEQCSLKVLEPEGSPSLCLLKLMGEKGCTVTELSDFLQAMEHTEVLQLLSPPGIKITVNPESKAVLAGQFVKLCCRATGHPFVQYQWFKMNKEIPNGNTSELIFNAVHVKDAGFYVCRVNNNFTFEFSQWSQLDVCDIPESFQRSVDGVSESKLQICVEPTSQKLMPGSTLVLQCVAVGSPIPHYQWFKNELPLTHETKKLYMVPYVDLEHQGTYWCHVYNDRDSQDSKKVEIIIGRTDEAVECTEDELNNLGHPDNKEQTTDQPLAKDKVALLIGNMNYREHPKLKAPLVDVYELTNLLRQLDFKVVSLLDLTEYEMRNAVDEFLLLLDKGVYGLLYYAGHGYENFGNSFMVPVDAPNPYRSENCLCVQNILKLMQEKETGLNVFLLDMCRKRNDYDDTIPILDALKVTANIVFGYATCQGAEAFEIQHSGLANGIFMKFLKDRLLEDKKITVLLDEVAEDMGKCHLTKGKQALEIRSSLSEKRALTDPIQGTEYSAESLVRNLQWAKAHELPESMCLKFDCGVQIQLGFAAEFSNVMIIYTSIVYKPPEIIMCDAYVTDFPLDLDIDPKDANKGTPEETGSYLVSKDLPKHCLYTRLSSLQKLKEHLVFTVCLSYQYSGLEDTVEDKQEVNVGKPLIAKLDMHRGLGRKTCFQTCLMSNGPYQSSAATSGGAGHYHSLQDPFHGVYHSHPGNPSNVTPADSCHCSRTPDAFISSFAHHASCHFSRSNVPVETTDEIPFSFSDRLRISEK
Method in brief: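 Full-length human MALT1 was pre-incubated with compound for 30 min, then cleaved a fluorogenic peptide for 60 min in 50 mM Hepes pH 7.5 with 0.8 M sodium citrate and 1 mM DTT. The reaction was quenched with 10 mM iodoacetate and fluorescence was read at 485/520 nm. IC50 came from four-parameter logistic fits of percent inhibition.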

[2] = Thermodynamic Solubility (Ts) Assay in Fasted State Simulated Intestinal Fluid (FaSSIF); assay type: physicochemical; details: thermodynamic from solid, FaSSIF pH 6.5, shake flask, 25° C., HPLC-UV
Experimental: The solubilities of various compounds of formula (I) were determined using a thermodynamic solubility assay. The thermodynamic solubility assay employed the shake flask method followed by HPLC-UV analysis. The following stepwise procedure was followed:
Samples of no less than 2.0 mg were weighed into the lower chambers of Whatman mini-uniprep vials (catalog number UN203NPUORG) and 450 μL of FaSSIF media (0.056% (w/v) lecithin, 0.161% (w/v) sodium taurocholate, 0.39% (w/v) monobasic potassium phosphate, 0.77% (w/v) potassium chloride, deionized H2O, pH 6.5) was added into each vial.
After the buffer was added, the filter pistons of the mini-uniprep vials were placed to the position of the liquid level to ensure the full contact of buffer and compound with the filter during the incubation.
The samples were then vortexed for 2 minutes, after which they were incubated at 25° C. with shaking (880 rpm) for 24 hours.
The samples were then centrifuged at 4000 rpm (20° C.) for 10 min.
The miniunipreps were then compressed to prepare filtrates, and the test concentration of the compound in the filtrate was determined using HPLC-UV (Waters XBridge C18, 4.6*100 mm column; mobile phase A: 0.1% TFA in H2O; mobile phase B: 0.1% TFA in acetonitrile). At least 5 UV standard solutions (e.g. amiodarone hydrochloride, carbamazepine, dexamethasone) were injected into the HPLC from low to high concentration subsequently followed by testing of the thermodynamic solubility supernatants in duplicate. The solubilities of the tested compounds are given in μg/mL.

[3] = High Throughput Dialysis (HTD) Human Plasma Protein Binding Assay; assay type: in vitro ADME; details: pooled human plasma, pH 7.4, equilibrium dialysis, 37° C., read-out: Human PPB (% Unbound)
Experimental: Human plasma protein binding of various compounds of formula (I) were evaluated using the equilibrium dialysis method described herein.
The dialysis membrane strips (HTD % a/b, catalog number 1101, HTDialysis LLC, Gales Ferry, CT, USA) were soaked in ultra-pure water at room temperature for approximately 1 hour. Each membrane strip containing 2 membranes was separated and soaked in 20:80 ethanol/water (v/v) for approximately 20 minutes, after which they were ready for use or were stored in the solution at 2-8° C. for up to a month. Prior to the experiment, the membrane was rinsed three times and soaked for 20 minutes in ultra-pure water.
On the day of experiment, the human plasma (BiolVT, catalog number […], sodium heparin or EDTA-K2 anticoagulant, multiple individuals pooled) was thawed by running under cold tap water and centrifuged at 3220 rpm for 5 minutes to remove any clots. The pH value of the resulting plasma was confirmed to be 7.0-8.0.
The test compounds and warfarin control (Stru Chem, catalog number SC-16139) were dissolved in dimethyl sulfoxide (DMSO) to obtain 10 mM stock solutions. DMSO working solutions were prepared at 400 μM. To prepare the loading matrix, the compound working solutions (5 μL) were added in a 1:200 ratio to blank human plasma (995 μL) and mixed thoroughly.
The time zero (T0) samples to be used for recovery determination were prepared as follows: 50 μL aliquots of loading matrix were transferred in triplicate to the sample collection plate. The samples were immediately matched with opposite blank buffer (basic solution (14.2 g/L Na2HPO4 and 8.77 g/L NaCl in deionized water) titrated with acidic solution (15.6 g/L NaH2PO4·2H2O and 8.77 g/L NaCl in deionized water) to pH 7.4±0.1) to obtain a final volume of 100 μL of 1:1 matrix/dialysis buffer (v/v) in each well. 500 μL stop solution (200 ng/mL tolbutamide and 200 ng/mL labetalol in acetonitrile) were added to these TO samples. They were then stored at 2-8° C. for further processing along with other post-dialysis samples.
To load the dialysis device (96-well equilibrium dialysis plate, model 96b, catalog number 1006. HTDialysis LLC, Gales Ferry, CT, USA), an aliquot of 150 μL of the loading matrix was transferred to the donor side of each dialysis well in triplicate, and 150 μL of the dialysis buffer was loaded to the receiver side of the well. The dialysis plate was placed in a humidified incubator at 37° C. with 5% CO2 on a shaking platform that rotated slowly (about 100 rpm) for 4 hours.
At the end of the dialysis, aliquots of 50 μL of the samples were taken from both the buffer side and the matrix side of the dialysis device. These samples were transferred into new 96-well plates (polypropylene, 2.2 mL/well, catalog number DWP-22-96-SQ-U-C-L. Apricot). Each sample was mixed with an equal volume of opposite blank matrix (buffer or matrix) to reach a final volume of 100 μL of 1:1 matrix/dialysis buffer (v/v) in each well. All samples were further processed by adding 500 μL of stop solution containing internal standards. The mixture was vortexed and centrifuged at 4000 rpm for about 20 minutes. An aliquot of 100 μL of supernatant of all the samples was then removed for LC-MS/MS analysis. Test compound concentrations in matrix and buffer samples were expressed as peak area ratios (PAR) of analyte/internal standard (no standard curve).
The single blank samples were prepared by transferring 50 μL of blank matrix to a 96 well plate (polypropylene. 2.2 mL/well, catalog number DWP-22-96-SQ-U-C-L, Apricot) and adding 50 μL of blank PBS buffer to each well. The blank plasma must match the species of plasma used in the plasma side of the well. Then the matrix-matched samples were further processed by adding 500 μL of stop solution containing internal standards, following the same sample processing method as the dialysis samples. […]

IC50 [1] [nM]	IC50 (full length MALT1) [nM]	solubility at 24 h [2] [µg/mL]	fraction unbound at 4 h, 2 µM [3]	Structure (SMILES)
100 to 1000	< 100	250 to 1750 (≈ 440 to 3080 µM)	> 0.2	CO[C@@H](C)c1c(Nc2ccc([C@H](N(C)C(=O)C3CCN(C(C)=O)CC3)C(F)(F)F)cc2)cnc2nc(Cl)nn12 [Compound 3.1, 1-acetyl-N—((S)-1-(4-((2-chloro-7-((S)-1-methoxyethyl)-[1,2,4]triazolo[1,5-a]pyrimidin-6-yl)amino)phenyl)-2,2,2-trifluoroethyl)-N-methylpiperidine-4-carboxamide]
100 to 1000	< 100	< 250	< 0.08	CO[C@@H](C)c1c(Nc2ccc([C@H](N(C)C(=O)C3CCN(S(C)(=O)=O)CC3)C(F)(F)F)cc2)cnc2nc(Cl)nn12 [Compound 3.4, N-[(1S)-1-[4-({2-chloro-7-[(1S)-1-methoxyethyl]-[1,2,4]triazolo[1,5-a]pyrimidin-6-yl}amino)phenyl]-2,2,2-trifluoroethyl]-1-methanesulfonyl-N-methylpiperidine-4-carboxamide]
100 to 1000	100 to 1000	–	0.08 to 0.2	CO[C@@H](C)c1c(Nc2ccc([C@H](N(C)C(=O)C3CCN(S(C)(=O)=O)C3)C(F)(F)F)cc2)cnc2nc(Cl)nn12 (stereo partly drawn) [Compound 3.10, N-[(1S)-1-[4-({2-chloro-7-[(1S)-1-methoxyethyl]-[1,2,4]triazolo[1,5-a]pyrimidin-6-yl}amino)phenyl]-2,2,2-trifluoroethyl]-1-methanesulfonyl-N-methylpyrrolidine-3-carboxamide]
100 to 1000	< 100	< 250	0.08 to 0.2	CO[C@@H](C)c1c(Nc2ccc([C@H](N(C)C(=O)C3CCN(C(=O)C4CC4)CC3)C(F)(F)F)cc2)cnc2nc(Cl)nn12 [Compound 4.1, N—((S)-1-(4-((2-chloro-7-((S)-1-methoxyethyl)-[1,2,4]triazolo[1,5-a]pyrimidin-6-yl)amino)phenyl)-2,2,2-trifluoroethyl)-1-(cyclopropanecarbonyl)-N-methylpiperidine-4-carboxamide]
100 to 1000	100 to 1000	> 1750	> 0.2	CO[C@@H](C)c1c(Nc2ccc([C@H](N(C)C(=O)C3CCN(C)CC3)C(F)(F)F)cc2)cnc2nc(Cl)nn12 [Compound 5.1, N—((S)-1-(4-((2-chloro-7-((S)-1-methoxyethyl)-[1,2,4]triazolo[1,5-a]pyrimidin-6-yl)amino)phenyl)-2,2,2-trifluoroethyl)-N,1-dimethylpiperidine-4-carboxamide]
100 to 1000	< 100	–	0.08 to 0.2	CO[C@@H](C)c1c(Nc2ccc([C@H](N(C)C(=O)[C@H]3CC[C@H](C(N)=O)CC3)C(F)(F)F)cc2)cnc2nc(Cl)nn12 [Compound 8.1, (1r,4S)—N1-((S)-1-(4-((2-chloro-7-((S)-1-methoxyethyl)-[1,2,4]triazolo[1,5-a]pyrimidin-6-yl)amino)phenyl)-2,2,2-trifluoroethyl)-N1-methylcyclohexane-1,4-dicarboxamide]

Further lines, the compound ahead of its results:

Structure (SMILES)	IC50 [1] [nM]	IC50 (full length MALT1) [nM]	solubility at 24 h [2] [µg/mL]	fraction unbound at 4 h, 2 µM [3]
CO[C@@H](C)c1c(Nc2ccc([C@H](N(C)C(=O)C3CCS(=O)(=O)CC3)C(F)(F)F)cc2)cnc2nc(Cl)nn12 [Compound 1.1, N-[(1S)-1-[4-({2-chloro-7-[(1S)-1-methoxyethyl]-[1,2,4]triazolo[1,5-a]pyrimidin-6-yl}amino)phenyl]-2,2,2-trifluoroethyl]-N-methyl-1,1-dioxo-1λ^6-thiane-4-carboxamide]	100 to 1000	< 100	250 to 1750 (≈ 435 to 3040 µM)	> 0.2
CO[C@@H](C)c1c(Nc2ccc([C@H](N(C)C(=O)C3CCC(F)(F)CC3)C(F)(F)F)cc2)cnc2nc(Cl)nn12 [Compound 1.8, N-[(1S)-1-[4-({2-chloro-7-[(1S)-1-methoxyethyl]-[1,2,4]triazolo[1,5-a]pyrimidin-6-yl}amino)phenyl]-2,2,2-trifluoroethyl]-4,4-difluoro-N-methylcyclohexane-1-carboxamide]	100 to 1000	100 to 1000	< 250	< 0.08
CO[C@@H](C)c1c(Nc2ccc([C@H](N(C)C(=O)C3CN(C(C)=O)C3)C(F)(F)F)cc2)cnc2nc(Cl)nn12 [Compound 1.15, 1-acetyl-N-[(1S)-1-[4-({2-chloro-7-[(1S)-1-methoxyethyl]-[1,2,4]triazolo[1,5-a]pyrimidin-6-yl}amino)phenyl]-2,2,2-trifluoroethyl]-N-methylazetidine-3-carboxamide]	100 to 1000	100 to 1000	> 1750	> 0.2
CC(C)c1c(Nc2ccc([C@H](N(C)C(=O)C3CCS(=O)(=O)CC3)C(F)(F)F)cc2)cnc2nc(Cl)nn12 [Compound 1.18, N-[(1S)-1-(4-{[2-chloro-7-(propan-2-yl)-[1,2,4]triazolo[1,5-a]pyrimidin-6-yl]amino}phenyl)-2,2,2-trifluoroethyl]-N-methyl-1,1-dioxo-1λ^6-thiane-4-carboxamide]	< 100	< 100	< 250	< 0.08
CC(=O)N1CCC(C(=O)N(C)[C@@H](c2ccc(Nc3cnc4nc(Cl)nn4c3C(C)C)cc2)C(F)(F)F)CC1 [Compound 1.19, 1-acetyl-N-[(1S)-1-(4-{[2-chloro-7-(propan-2-yl)-[1,2,4]triazolo[1,5-a]pyrimidin-6-yl]amino}phenyl)-2,2,2-trifluoroethyl]-N-methylpiperidine-4-carboxamide]	< 100	< 100	< 250	< 0.08
